Test results published in patent US11078198B2 (BRISTOL-MYERS SQUIBB COMPANY, priority 2017, dated 2021).

molecular target: T1, human FXR (Homo sapiens, UniProt Q96RI1); experiment: transient human FXR/Gal4-luciferase reporter assay; assay type: cell-based; conditions: Gal4-hFXR transfected HEK293 reporter cells; relative to 8 μM GW-4064
T1 construct: expressed in transfected cells; host or cells: HEK293 cells stably carrying a 5xGal4-response-element firefly luciferase reporter, transiently transfected with pcDNA3.1-Gal4-FXR
T1 sequence (Q96RI1 262-486 limits assumed): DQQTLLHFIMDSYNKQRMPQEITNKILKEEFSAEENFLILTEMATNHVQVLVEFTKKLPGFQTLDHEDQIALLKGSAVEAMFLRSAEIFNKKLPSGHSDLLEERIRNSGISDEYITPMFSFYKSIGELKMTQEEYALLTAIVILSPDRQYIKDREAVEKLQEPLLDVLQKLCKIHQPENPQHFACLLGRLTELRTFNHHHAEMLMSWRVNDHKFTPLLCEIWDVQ
How it was run: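 Transient Gal4-hFXR LBD fusion (pcDNA3.1, Lipofectamine, overnight) expressed in a HEK293 reporter line stably bearing five Gal4 elements upstream of firefly luciferase, grown in charcoal/dextran-stripped FBS. Compound dilutions in DMSO incubated with cells overnight at 37° C, 5% CO2, before luciferase readout.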

Q: With O=C(O)c1ccc2nc(N3CCC4(C=C(c5c(-c6c(Cl)cccc6Cl)noc5C5CC5)C4)CC3)sc2c1 [Example 24, 2-(2-(5-Cyclopropyl-3-(2,6-dichlorophenyl)isoxazol-4-yl)-7-azaspiro[3.5]non-1-en-7-yl)benzo[d]thiazole-6-carboxylic acid] as the molecule, how does the EC50 read?
A: 17 nM

Q: O=C(O)c1cc(C(F)(F)F)c2cc(N3CCC4(C=C(c5c(C(C6CC6)C6CC6)noc5C5CC5)C4)CC3)ccc2n1 [Example 212, 6-(2-(5-Cyclopropyl-3-(dicyclopropylmethyl)isoxazol-4-yl)-7-azaspiro[3.5]non-1-en-7-yl)-4-(trifluoromethyl)quinoline-2-carboxylic acid] was tested. Which EC50 did it give?
A: 1550 nM

Q: For O=C(O)c1cc(F)c2nc(N3CCC4(C=C(c5c(C6CC6)nnn5-c5c(Cl)cccc5Cl)C4)CC3)sc2c1 [Example 204, 2-(2-(4-Cyclopropyl-1-(2,6-dichlorophenyl)-1H-1,2,3-triazol-5-yl)-7-azaspiro[3.5]non-1-en-7-yl)-4-fluorobenzo[d]thiazole-6-carboxylic acid], which EC50 is on record?
A: 26 nM

Q: With Cc1nc(N2CCC3(C=C(c4c(-c5c(Cl)cccc5Cl)noc4C4CC4)C3)CC2)ccc1C(=O)O [Example 124, 6-(2-(5-Cyclopropyl-3-(2,6-dichlorophenyl)isoxazol-4-yl)-7-azaspiro[3.5]non-1-en-7-yl)-2-methylnicotinic acid] as the molecule, how does the EC50 read?
A: 78 nM

Q: Which EC50 does the source give for O=C(O)c1cc(C(F)(F)F)c2cc(N3CCC4(C=C(c5c(-c6c(Cl)cccc6Cl)noc5C5CC5)C4)CC3)ccc2n1 [Example 83, 6-(2-(5-Cyclopropyl-3-(2,6-dichlorophenyl)isoxazol-4-yl)-7-azaspiro[3.5]non-1-en-7-yl)-4-(trifluoromethyl)quinoline-2-carboxylic acid] here?
A: 38 nM

Q: For O=C(O)c1cccc(N2CCC3(C=C(c4c(-c5c(Cl)cccc5Cl)noc4C4CC4)C3)CC2)n1 [Example 4, 6-(2-(5-Cyclopropyl-3-(2,6-dichlorophenyl)isoxazol-4-yl)-7-azaspiro[3.5]non-1-en-7-yl) picolinic acid], which EC50 is on record?
A: 712 nM

Q: CCOC(=O)c1cc(C(F)(F)F)c2cc(N3CCC4(C=C(c5c(-c6c(Cl)cncc6Cl)noc5C5CC5)C4)CC3)ccc2n1 [Example 203, Ethyl 6-(2-(5-cyclopropyl-3-(3,5-dichloropyridin-4-yl)isoxazol-4-yl)-7-azaspiro[3.5]non-1-en-7-yl)-4-(trifluoromethyl)quinoline-2-carboxylate] was tested. Which EC50 did it give?
A: 946 nM

Q: O=C(O)c1cc2ccc(N3CCC4(C=C(c5c(-c6c(Cl)cncc6Cl)noc5C5CC5)C4)CC3)cc2nn1 [Example 55, 7-(2-(5-Cyclopropyl-3-(3,5-dichloropyridin-4-yl)isoxazol-4-yl)-7-azaspiro[3.5]non-1-en-7-yl)cinnoline-3-carboxylic acid] was tested. Which EC50 did it give?
A: 191 nM

Q: With O=C(O)c1cnc(N2CCC3(C=C(c4c(-c5ccccc5C(F)(F)F)noc4C4CC4)C3)CC2)cc1C(F)(F)F [Example 163, 6-(2-(5-Cyclopropyl-3-(2-(trifluoromethyl)phenyl)isoxazol-4-yl)-7-azaspiro[3.5]non-1-en-7-yl)-4-(trifluoromethyl)nicotinic acid] as the molecule, how does the EC50 read?
A: 344 nM

Q: CC(C)Oc1cc(C(=O)O)nc2ccc(N3CCC4(C=C(c5c(-c6c(Cl)cncc6Cl)noc5C5CC5)C4)CC3)cc12 [Example 111, 6-(2-(5-Cyclopropyl-3-(3,5-dichloropyridin-4-yl)isoxazol-4-yl)-7-azaspiro[3.5]non-1-en-7-yl)-4-isopropoxyquinoline-2-carboxylic acid] was tested. Which EC50 did it give?
A: 47 nM

Q: O=C(O)c1cc2ccc(N3CCC4(C=C(c5c(-c6ccccc6C(F)(F)F)noc5C5CC5)C4)CC3)cc2nn1 [Example 54, 7-(2-(5-Cyclopropyl-3-(2-(trifluoromethyl)phenyl)isoxazol-4-yl)-7-azaspiro[3.5]non-1-en-7-yl)cinnoline-3-carboxylic acid] was tested. Which EC50 did it give?
A: 177 nM

Q: How did the EC50 turn out when O=C(O)c1ccc2oc(N3CCC4(C=C(c5c(-c6c(Cl)cccc6Cl)noc5C5CC5)C4)CC3)nc2c1 [Example 26, 2-(2-(5-Cyclopropyl-3-(2,6-dichlorophenyl)isoxazol-4-yl)-7-azaspiro[3.5]non-1-en-7-yl)benzo[d]oxazole-5-carboxylic acid] was run?
A: 157 nM

Q: With CS(=O)(=O)NC(=O)c1cc(OC(F)F)c2cc(N3CCC4(C=C(c5c(-c6cccnc6C(F)(F)F)noc5C5CC5)C4)CC3)ccc2n1 [Example 192, 6-(2-(5-Cyclopropyl-3-(2-(trifluoromethyl)pyridin-3-yl)isoxazol-4-yl)-7-azaspiro[3.5]non-1-en-7-yl)-4-(difluoromethoxy)-N-(methylsulfonyl)quinoline-2-carboxamide] as the molecule, how does the EC50 read?
A: 238 nM

Q: With O=C(O)c1ccc2nc(N3CCC4(C=C(c5c(-c6c(Cl)cccc6Cl)noc5C5CC5)C4)CC3)oc2c1 [Example 114, 2-(2-(5-Cyclopropyl-3-(2,6-dichlorophenyl)isoxazol-4-yl)-7-azaspiro[3.5]non-1-en-7-yl)benzo[d]oxazole-6-carboxylic acid] as the molecule, how does the EC50 read?
A: 127 nM

Q: O=C(O)c1cccc(N2CCC3(CC2)COC(c2c(-c4ccccc4OC(F)(F)F)noc2C2CC2)O3)n1 (centres unmarked) [Example 44, 6-(2-(5-cyclopropyl-3-(2-(trifluoromethoxy)phenyl)isoxazol-4-yl)-1,3-dioxa-8-azaspiro[4.5]decan-8-yl)picolinic acid] was tested. Which EC50 did it give?
A: 5000 nM

Q: O=C(O)c1cc(F)c2nc(N3CCC4(C=C(c5c(-c6c(Cl)cccc6Cl)noc5C5CC5)CO4)CC3)sc2c1 [Example 3, 2-(3-(5-Cyclopropyl-3-(2,6-dichlorophenyl)isoxazol-4-yl)-1-oxa-8-azaspiro[4.5]dec-3-en-8-yl)-4-fluorobenzo[d]thiazole-6-carboxylic acid] was tested. Which EC50 did it give?
A: 240 nM

Q: Which EC50 does the source give for CCOc1cc(C(=O)O)nc2ccc(N3CCC4(C=C(c5c(-c6ccccc6OC(F)(F)F)noc5C5CC5)C4)CC3)cc12 [Example 113, 6-(2-(5-Cyclopropyl-3-(2-(trifluoromethoxy)phenyl)isoxazol-4-yl)-7-azaspiro[3.5]non-1-en-7-yl)-4-ethoxyquinoline-2-carboxylic acid] here?
A: 116 nM

Q: O=C(O)c1cc(C(F)(F)F)c2cc(N3CCC4(C=C(c5c(-c6c(Cl)cc(F)cc6Cl)noc5C5CC5)C4)CC3)ccc2n1 [Example 86, 6-(2-(5-Cyclopropyl-3-(2,6-dichloro-4-fluorophenyl)isoxazol-4-yl)-7-azaspiro[3.5]non-1-en-7-yl)-4-(trifluoromethyl)quinoline-2-carboxylic acid] was tested. Which EC50 did it give?
A: 68 nM

Q: How did the EC50 turn out when COc1cc(C(=O)O)nc2ccc(N3CCC4(C=C(c5c(-c6ccccc6C(F)(F)F)noc5C5CC5)C4)CC3)cc12 [Example 105, 6-(2-(5-Cyclopropyl-3-(2-(trifluoromethyl)phenyl)isoxazol-4-yl)-7-azaspiro[3.5]non-1-en-7-yl)-4-methoxyquinoline-2-carboxylic acid] was run?
A: 62 nM

Q: Which EC50 does the source give for COc1cc(C(=O)O)nc2ccc(N3CCC4(C=C(c5c(-c6ccncc6Cl)noc5C5CC5)C4)CC3)cc12 [Example 109, 6-(2-(3-(3-Chloropyridin-4-yl)-5-cyclopropylisoxazol-4-yl)-7-azaspiro[3.5]non-1-en-7-yl)-4-methoxyquinoline-2-carboxylic acid] here?
A: 140 nM

Q: Which EC50 does the source give for O=C(O)c1ccc2nc(N3CCC4(C=C(c5c(-c6c(Cl)cncc6Cl)noc5C5CC5)C4)CC3)sc2c1 [Example 63, 2-(2-(5-Cyclopropyl-3-(3,5-dichloropyridin-4-yl)isoxazol-4-yl)-7-azaspiro[3.5]non-1-en-7-yl)benzo[d]thiazole-6-carboxylic acid] here?
A: 62 nM

Q: With CCOC(=O)c1cc(F)c2nc(N3[C@@H]4CC[C@H]3C[C@@]3(COC(c5c(-c6c(Cl)cccc6Cl)noc5C5CC5)O3)C4)sc2c1 (stereo partly drawn) [Example 40, Ethyl 2-((1R,3S,5S)-2′-(5-cyclopropyl-3-(2,6-dichlorophenyl)isoxazol-4-yl)-8-azaspiro[bicyclo[3.2.1]octane-3,4′-[1,3]dioxolan]-8-yl)-4-fluorobenzo[d]thiazole-6-carboxylate] as the molecule, how does the EC50 read?
A: 3400 nM

Q: With Cn1cc(C(=O)O)c2cnc(N3CCC4(C=C(c5c(-c6c(Cl)cccc6Cl)noc5C5CC5)C4)CC3)nc21 [Example 6, 2-(2-(5-Cyclopropyl-3-(2,6-dichlorophenyl)isoxazol-4-yl)-7-azaspiro[3.5]non-1-en-7-yl)-7-methyl-7H-pyrrolo[2,3-d]pyrimidine-5-carboxylic acid] as the molecule, how does the EC50 read?
A: 47 nM

Q: With O=C(O[C@@H]1O[C@H](C(=O)O)[C@@H](O)[C@H](O)[C@H]1O)c1cc(C(F)(F)F)c2cc(N3CCC4(C=C(c5c(-c6c(Cl)cncc6Cl)noc5C5CC5)C4)CC3)ccc2n1 [Example 224, (2S,3S,4S,5R,6S)-6-((6-(2-(5-Cyclopropyl-3-(3,5-dichloropyridin-4-yl)isoxazol-4-yl)-7-azaspiro[3.5]non-1-en-7-yl)-4-(trifluoromethyl)quinoline-2-carbonyl)oxy)-3,4,5-trihydroxytetrahydro-2H-pyran-2-carboxylic acid] as the molecule, how does the EC50 read?
A: 73 nM

Q: For CC(C)(C)OC(=O)N1CCC2(CC1)COC(c1c(-c3c(Cl)cccc3Cl)noc1C1CC1)O2 (racemic) [(±)-tert-Butyl 2-(5-cyclopropyl-3-(2,6-dichlorophenyl)isoxazol-4-yl)-1,3-dioxa-8-azaspiro[4.5]decane-8-carboxylate], which EC50 is on record?
A: 4800 nM

Q: How did the EC50 turn out when O=C(O)c1cc(F)c2nc(N3CCC4(CC3)CC(O)(c3c(-c5c(Cl)cccc5Cl)noc3C3CC3)C4)sc2c1 [Example 33, 2-(2-(5-Cyclopropyl-3-(2,6-dichlorophenyl)isoxazol-4-yl)-2-hydroxy-7-azaspiro[3.5]nonan-7-yl)-4-fluorobenzo[d]thiazole-6-carboxylic acid] was run?
A: 4800 nM
